From BigSolDB 2.1

CCc1ccc2c(c1)C(=O)c1ccccc1C2=O
solubility (mole fraction)
Details	304.15 K	309.15 K	314.15 K	319.15 K	324.15 K	329.15 K	334.15 K	339.15 K	344.15 K
in 2-methyl-cyclohexyl acetate	0.0752	0.0907	0.104	0.127	0.145	0.171	0.199	0.232	0.268
in 2-phenylethanol	0.107	0.127	0.15	0.176	0.21	0.248	0.288	0.334	0.385
in DMAc	0.0943	0.113	0.131	0.156	0.184	0.214	0.248	0.287	0.336
in DMF	0.107	0.126	0.153	0.176	0.21	0.245	0.283	0.335	0.388
in acetophenone	0.138	0.163	0.185	0.21	0.238	0.274	0.315	0.356	0.397
in diglyme	0.165	0.191	0.216	0.244	0.275	0.314	0.357	0.401	0.444
in diisobutyl methanol	0.0441	0.0536	0.0651	0.0787	0.0973	0.116	0.139	0.163	0.199
in dioctyl adipate	0.0657	0.0773	0.0899	0.107	0.129	0.152	0.18	0.209	0.242
in mesitylene	0.139	0.159	0.184	0.209	0.234	0.264	0.296	0.329	0.371
in styrene	0.0944	0.112	0.132	0.153	0.182	0.212	0.248	0.285	0.335
in tetrabutyl urea	0.0531	0.0644	0.0785	0.0947	0.116	0.139	0.17	0.197	0.24
in trioctyl phosphate	0.0569	0.0678	0.0792	0.0959	0.114	0.135	0.155	0.182	0.22
